The text below walks through data of patent EP0864571A1, “APOVINCAMINIC ACID DERIVATIVE AND MEDICINE CONTAINING THE SAME” (Hidaka, Hiroyoshi, priority 1995, dated 1997).

Where two headings read alike, the source gives them in different places.

Data set [1] relates to platelet-rich plasma (PRP). Put plainly: Platelet aggregation inhibition test (ex vivo PRP after oral administration). The format is in vivo. The note with it: guinea pigs, blood one hour after administration; for Platelet aggregation inhibition rate (%) Collagen: collagen (2.5 µg/mg); for Platelet aggregation inhibition rate (%) Arachidonic acid: arachidonic acid (0.1 mM). As for the experimental part: A test was conducted using male S1c:Hartley guinea pigs, which were 5 to 7 weeks old and had body weights of from 274 to 554 g, in groups each of which consisted of five guinea pigs. […] One hour after the administration, blood was collected from the abdominal aorta, and a platelet-rich plasma (PRP) was prepared. […]

Data set [2] in a line: Acute toxicity (single intravenous shot, approximate LD50). The note with it: mouse, in vivo, male S1C:ICR mice, single shot into caudal vein. As for the experimental part: A test was conducted using male S1C:ICR mice, which were 6 to 7 weeks old and had body weights of from 18 to 36 g, in groups each which consisted of 3 mice.
Predetermined amounts of compounds according to the present invention and a comparative drug (vinpocetine phosphate), each of which had been dissolved in a 5% aqueous solution of glucose, were administered as single shots into the caudal veins of the mice, and the mice were then observed to determine whether they remained under normal conditions or died. Upon expiration of an observation period, their approximate LD50 values were calculated by the provit method.

Another data set has as its system washed platelets. In words: Platelet aggregation inhibiting activity (washed platelets, collagen, nephelometric analysis). In kind it is cell-based, normal volunteer. The note with it: Homo sapiens, read-out: Platelet aggregation inhibiting activity (IC50).
The subject of data set [3] is superior mesenteric artery. Put plainly: Vascular smooth muscle relaxing activity (potassium chloride-contracted helical artery preparation). Also on record: species or system rabbit. Conditions: read-out: Vascular smooth muscle relaxing activity (ED50). As for the experimental part: Each rabbit was sacrificed under exsanguination, and an incision was then made in the flank thereof. […] After this preparation cut was caused to contract with potassium chloride to maintain it under predetermined tension, a given test compound was added cumulatively.

Data set [4] concerns Vertebral blood flow and femoral blood flow. In words: Blood flow enhancement test (anesthetized beagles, electromagnetic flow probe). The note with it: femoral vein administration. The format is in vivo. As for the experimental part: A test was conducted using male beagles, which were 9 to 13 months old, had body weights of from 9 to 10 kg and had been anesthetized with pentobarbital sodium (25-30 mg/kg), in groups each of which consisted of four beagles. Into one of the femoral veins of each of the beagles, a given test compound in a form dissolved in a 5% agueous solution of glucose was administered at a dose of from 0.1 to 1.0 mg/kg. Vertebral blood flow and femoral blood flow were measured using an electromagnetic flow probe connected to a magnetic flow meter.

The mark [5] stands for this setting: washed platelets of a normal volunteer, aggregation by collagen.
[6] abbreviates: Oryctolagus cuniculus, rabbit superior mesenteric artery contracted with potassium chloride, concentration for 50% relaxation.

Protocol for washed platelets: Blood, which had been collected from a normal volunteer and had immediately been mixed with 1/10 volume of a 0.38% agueous solution of sodium citrate, was converted into a platelet-rich plasma (PRP) by centrifugation (700 x G, 10 minutes). To the PRP, 1/6 volume of the ACD solution (2.2% sodium citrate, 0.8% citric acid, 2.2% glucose - prepared before use) was added, followed by centrifugation (1,500 x G, 10 minutes). A platelet pellet so obtained was suspended in a modified HEPES Tyrode solution (135 mM sodium chloride, 2.7 mM potassium chloride, 1 mM magnesium chloride, 0.1 mg/mℓ glucose, 20 mM HEPE; pH 7.4). After 1/6 volume of the ACD solution was added to the suspension, further centrifugation was conducted (1,500 x G, 5 minutes). A platelet pellet so obtained was suspended in the modified HEPES Tyrode solution, whereby a washed platelet suspension containing about 300,000 platelets/µℓ therein was obtained.
Into 270-µℓ aliquots of the washed platelet suspension obtained above, 3-µℓ aliquots of solutions of a given test compound at varied concentrations in an appropriate solvent were added, respectively. The resulting mixtures were each preheated at 37°C for 2 minutes and, subsequent to the addition of 30 µℓ of a 20 µg/mℓ solution of collagen, an absorbance was measured by a 4-channel aggregometer ("HEMA Tracer 601"; manufactured by Nicoh Bioscience Co., Ltd.).
As a control, an absorption at the time of maximum aggregation by collagen in the presence of a solvent making use of a given test compound was assumed to be 100 whereas an absorbance before the addition of collagen was assumed to be 0. An inhibition rate (%) was then calculated from an absorbance at the time of maximum aggregation by collagen when the given test compound was added, and a concentration (µM) of the given test compound which achieves 50% inhibition was expressed as "IC50".

For the compound `O=C1CCc2cc(OCCCCc3nnnn3C3CCCCC3)ccc2N1` [Cilostazol, reference compound], the “Platelet aggregation inhibition rate (%) Collagen” value in data set [1] (oral 100 mg/kg) is listed as 12.4%. Moreover, in data set [1] (oral 300 mg/kg), the “Platelet aggregation inhibition rate (%) Arachidonic acid” value was determined as 22.1% and the “Platelet aggregation inhibition rate (%) Collagen” value was 74.7%.

`CCOC(=O)C1=CC2(CC)CCCN3CCc4c(n1c1cc(NS(=O)(=O)c5ccccc5)ccc41)C32` (stereo not shown) [Compound 1, ethyl 11-phenylsulfonylamino-apovin-caminate] yielded a median lethal dose (LD50) in data set [2] of 85 mg/kg. Besides, in data set [1] (oral 100 mg/kg), the “Platelet aggregation inhibition rate (%) Arachidonic acid” value came out at 45.2% and the “Platelet aggregation inhibition rate (%) Collagen” value came out at 85.4%.

For `CCC12C=C(C(=O)OC)n3c4c(c5ccc(NS(=O)(=O)c6ccccc6)cc53)CCN(CCC1)C42` (stereo not shown) [Compound 2, Methyl 11-phenylsulfonylamino-apovincaminate], the IC50 in the data set with washed platelets (setting [5]) is 380 nM. Besides, the EC50 in data set [3] (setting [6]) was 2100 nM.

Consider `CCC12C=C(C(=O)OC)n3c4c(c5ccc(NS(=O)(=O)c6ccc(Cl)cc6)cc53)CCN(CCC1)C42` (stereo not shown) [Compound 3, Methyl 11-(4-chlorophenyl)sulfonylamino-apovincaminate], for which the IC50 in the data set with washed platelets (setting [5]) amounted to 250 nM. In data set [3] (setting [6]), the EC50 stood at 1700 nM.

For the compound `CCOC(=O)C1=CC2(CC)CCCN3CCc4c(n1c1cc(NS(=O)(=O)c5ccc(Br)cc5)ccc41)C32` (stereo not shown) [Compound 4, Ethyl 11-(4-bromophenyl)sulfonylamino-apovincaminate], the IC50 in the data set on washed platelets (setting [5]) was 760 nM. Moreover, the EC50 in data set [3] (setting [6]) was found to be 1000 nM.

Regarding `CCC12C=C(C(=O)OC(C)C)n3c4c(c5ccc(NS(=O)(=O)c6ccc(Cl)cc6)cc53)CCN(CCC1)C42` (stereo not shown) [Compound 5, Isopropyl 11-(4-chlorophenyl)sulfonylamino-apovincaminate], in the data set on washed platelets (setting [5]), the IC50 was found to be 940 nM. The EC50 in data set [3] (setting [6]) came to 1300 nM.

As for `CCCOC(=O)C1=CC2(CC)CCCN3CCc4c(n1c1cc(NS(=O)(=O)c5ccc(Cl)cc5)ccc41)C32` (stereo not shown) [Compound 6, Propyl 11-(4-chlorophenyl)sulfonylamino-apovincaminate], the IC50 with washed platelets (setting [5]) came to 960 nM. In addition, in data set [3] (setting [6]), the EC50 came to 1300 nM.

With `CCOC(=O)C1=CC2(CC)CCCN3CCc4c(n1c1cc(NS(=O)(=O)c5ccc(F)cc5)ccc41)C32` (stereo not shown) [Compound 7, Ethyl 11-(4-fluorophenyl)sulfonylamino-apovincaminate], in the data set on washed platelets (setting [5]), the IC50 was 910 nM. In data set [3] (setting [6]), the EC50 came out at 2000 nM.

Regarding `CCOC(=O)C1=CC2(CC)CCCN3CCc4c(n1c1cc(NS(=O)(=O)c5ccc(I)cc5)ccc41)C32` (stereo not shown) [Compound 8, Ethyl 11-(4-iodophenyl)sulfonylamino-apovincaminate], in the data set on washed platelets (setting [5]), the IC50 was 810 nM. The EC50 in data set [3] (setting [6]) was found to be 1300 nM.

In the case of `CCOC(=O)C1=CC2(CC)CCCN3CCc4c(n1c1cc(NS(=O)(=O)c5cc(Cl)ccc5Cl)ccc41)C32` (stereo not shown) [Compound 9, Ethyl 11-(2,5-dichlorophenyl)sulfonylamino-apovincaminate], in the data set on washed platelets (setting [5]), the IC50 turned out to be 880 nM. Further, in data set [3] (setting [6]), the EC50 stood at 900 nM.

For `CCOC(=O)C1=CC2(CC)CCCN3CCc4c(n1c1cc(NS(=O)(=O)c5cccc6ccccc56)ccc41)C32` (stereo not shown) [Compound 10, Ethyl 11-(1-naphthalene)sulfonylamino-apovincaminate], the IC50 with washed platelets (setting [5]) stood at 9200 nM. In addition, the EC50 in data set [3] (setting [6]) stood at 2000 nM.

With `CCOC(=O)C1=CC2(CC)CCCN3CCc4c(n1c1cc(NS(=O)(=O)c5ccc(C)cc5)ccc41)C32` (stereo not shown) [Compound 11, Ethyl 11-(4-toluene)sulfonylamino-apovincaminate], the IC50 in the data set with washed platelets came to 50 nM. For the same compound, the median lethal dose (LD50) in data set [2] was found to be 125 mg/kg. Also, in data set [1] (oral 100 mg/kg), the “Platelet aggregation inhibition rate (%) Arachidonic acid” value is reported as 33.9% and the “Platelet aggregation inhibition rate (%) Collagen” value is reported as 49.1%. Further, the EC50 in data set [3] (Oryctolagus cuniculus) was 1000 nM. For the same compound, in data set [4] (dose 0.1 mg/kg), the “Bloodflow increment (%) Femoral artery” value came out at 2.9% and the “Bloodflow increment (%) Vertebral artery” value is reported as 5.4%. Also, in data set [4] (dose 0.3 mg/kg), the “Bloodflow increment (%) Femoral artery” value is listed as 5.1% and the “Bloodflow increment (%) Vertebral artery” value came out at 11.8%. In data set [4] (dose 1.0 mg/kg), the “Bloodflow increment (%) Femoral artery” value is recorded as 4.5% and the “Bloodflow increment (%) Vertebral artery” value was found to be 32.5%.

On to `CCOC(=O)C1=CC2(CC)CCCN3CCc4c(n1c1cc(NS(=O)(=O)c5c(C)cc(C)cc5C)ccc41)C32` (stereo not shown) [Compound 12, Ethyl 11-mesytylenesulfonylamino-apovincaminate], for which the LD50 in data set [2] stood at 50 mg/kg. Further, the “Platelet aggregation inhibition rate (%) Collagen” value in data set [1] (oral 100 mg/kg) is 13.0%.

Consider `CCOC(=O)C1=CC2(CC)CCCN3CCc4c(n1c1cc(NS(=O)(=O)Cc5ccccc5)ccc41)C32` (stereo not shown) [Compound 13, Ethyl 11-benzylsulfonylamino-apovincaminate], for which, in the data set on washed platelets (setting [5]), the IC50 worked out at 4400 nM. Also, in data set [3] (setting [6]), the EC50 stood at 300 nM.

On to `CCOC(=O)C1=CC2(CC)CCCN3CCc4c(n1c1cc(NS(=O)(=O)c5ccc(NC(C)=O)cc5)ccc41)C32` (stereo not shown) [Compound 14, Ethyl 11-(4-acetylaminophenyl)sulfonyl-amino-apovincaminate], for which the IC50 in the data set on washed platelets (setting [5]) came to 470 nM. Also, in data set [3] (setting [6]), the EC50 came to 1200 nM.

Take `CCOC(=O)C1=CC2(CC)CCCN3CCc4c(n1c1cc(NS(=O)(=O)c5cccc6cccnc56)ccc41)C32` (stereo not shown) [Compound 15, Ethyl 11-(8-quinoline)sulfonylamino-apovincaminate]: the IC50 in the data set with washed platelets (setting [5]) came out at 4100 nM. In addition, the EC50 in data set [3] (setting [6]) turned out to be 500 nM.

In the case of `CCOC(=O)C1=CC2(CC)CCCN3CCc4c(n1c1cc(NS(=O)(=O)c5ccc(OC)cc5)ccc41)C32` (stereo not shown) [Compound 16, Ethyl 11-(4-methoxyphenyl) sulfonylamino-apovincaminate], in the data set on washed platelets (setting [5]), the IC50 turned out to be 1000 nM. In addition, the EC50 in data set [3] (setting [6]) amounted to 700 nM.

As for `CCOC(=O)C1=CC2(CC)CCCN3CCc4c(n1c1cc(NS(=O)(=O)c5cc(C)ccc5C)ccc41)C32` (stereo not shown) [Compound 17, Ethyl 11-(2,5-dimethylphenyl)sulfonyl-amino-apovincaminate], the IC50 in the data set on washed platelets (setting [5]) was 720 nM. Also, in data set [3] (setting [6]), the EC50 was 710 nM.

For the compound `CCOC(=O)C1=CC2(CC)CCCN3CCc4c(n1c1cc(NS(=O)(=O)c5cccs5)ccc41)C32` (stereo not shown) [Compound 18, Ethyl 11-(2-thiophene)sulfonylamino-apovincaminate], the IC50 in the data set on washed platelets (setting [5]) turned out to be 400 nM. In data set [3] (setting [6]), the EC50 was determined as 630 nM.

In the case of `CCOC(=O)C1=CC2(CC)CCCN3CCc4c(n1c1cc(NS(=O)(=O)c5ccccc5C(=O)OC)ccc41)C32` (stereo not shown) [Compound 19, Ethyl 11-(2-methoxycarbonylphenyl)sulfonylamino-apovincaminate], in the data set with washed platelets (setting [5]), the IC50 is 1800 nM. The EC50 in data set [3] (setting [6]) was 200 nM.

Consider `CCOC(=O)C1=C[C@]2(CC)CCCN3CCc4c(n1c1cc(NS(=O)(=O)c5c(C(C)C)cc(C(C)C)cc5C(C)C)ccc41)[C@@H]32` [Compound 20, Ethyl 11-(2,4,6-triisopropylphenyl)sulfonylamino-apovincaminate], for which the EC50 in data set [3] (rabbit superior mesenteric artery contracted with potassium chloride, concentration for 50% relaxation) is 930 nM.

As for `CCOC(=O)C1=CC2(CC)CCCN3CCc4c(n1c1cc(NS(=O)(=O)c5ccc(OC)cc5[N+](=O)[O-])ccc41)C32` (stereo not shown) [Compound 21, Ethyl 11-(4-methoxy-2-nitrophenyl)sulfonylamino-apovincaminate], the IC50 in the data set on washed platelets (setting [5]) was 400 nM. Also, the EC50 in data set [3] (setting [6]) came to 2100 nM.

With `CCOC(=O)C1=CC2(CC)CCCN3CCc4c(n1c1cc(NS(=O)(=O)c5ccc6ccccc6c5)ccc41)C32` (stereo not shown) [Compound 22, Ethyl 11-(2-naphthalene)sulfonylamino-apovincaminate], the half-maximal inhibitory concentration (IC50) in the data set on washed platelets (setting [5]) stood at 280 nM. For the same compound, the EC50 in data set [3] (setting [6]) came out at 860 nM.

Turning to `CCOC(=O)C1=CC2(CC)CCCN3CCc4c(n1c1cc(NS(=O)(=O)c5c(F)c(F)c(F)c(F)c5F)ccc41)C32` (stereo not shown) [Compound 23, Ethyl 11-(2,3,4,5,6-pentafluorophenyl)sulfonylamino-apovincaminate], the IC50 with washed platelets (setting [5]) stood at 580 nM. Moreover, the EC50 in data set [3] (setting [6]) came to 1200 nM.

Turning to `CCOC(=O)C1=CC2(CC)CCCN3CCc4c(n1c1cc(NS(=O)(=O)c5cccc([N+](=O)[O-])c5)ccc41)C32` (stereo not shown) [Compound 24, Ethyl 11-(3-nitrophenyl)sulfonylamno-apovincaminate], the IC50 in the data set on washed platelets worked out at 900 nM. The EC50 in data set [3] (Oryctolagus cuniculus) turned out to be 200 nM.

Compound `CCOC(=O)C1=CC2(CC)CCCN3CCc4c(n1c1ccccc41)C32` (stereo not shown) [Vinpocetine phosphate, vinpocetine phosphate, reference compound] displayed an LD50 in data set [2] of 60 mg/kg.
